Inhibition data for six compounds are collected here from ChEMBL document CHEMBL2434912, “Microwave accelerated synthesis of isoxazole hydrazide inhibitors of the system xc- transporter: Initial homology model” (Bioorg Med Chem Lett, 2013).

This assay concerns the target T1, Cystine/glutamate transporter (Homo sapiens) (UniProt Q9UPY5).
T1 sequence (whole entry): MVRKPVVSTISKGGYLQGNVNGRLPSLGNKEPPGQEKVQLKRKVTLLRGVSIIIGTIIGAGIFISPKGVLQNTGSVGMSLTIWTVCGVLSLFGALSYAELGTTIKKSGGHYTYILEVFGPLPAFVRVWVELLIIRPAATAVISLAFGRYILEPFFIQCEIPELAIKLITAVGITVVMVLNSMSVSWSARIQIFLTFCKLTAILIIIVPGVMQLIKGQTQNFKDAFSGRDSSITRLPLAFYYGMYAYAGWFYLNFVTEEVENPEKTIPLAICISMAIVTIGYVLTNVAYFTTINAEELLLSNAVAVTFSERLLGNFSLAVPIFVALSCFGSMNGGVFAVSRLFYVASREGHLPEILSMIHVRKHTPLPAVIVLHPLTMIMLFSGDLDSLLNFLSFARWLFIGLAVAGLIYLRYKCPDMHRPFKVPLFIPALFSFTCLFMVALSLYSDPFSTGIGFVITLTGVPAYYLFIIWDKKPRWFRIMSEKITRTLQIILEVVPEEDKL
Briefly: Inhibition of system xc-transporter-mediated [3H]-L-glutamate uptake in human SNB19 cells at 500 uM after 5 mins by liquid scintillation counting analysis relative to control. As to conditions: SNB-19. It is filed as cell-based.
By inhibition is commonly meant the relative decrease from the control value, in per cent. Low values mean little suppression, high ones strong suppression. `C/C(=N\NC(=O)c1ccccc1)c1c(C(=O)O)noc1C` yielded an inhibition of 83%.

For the compound `C/C(=N\NC(=O)c1ccccc1O)c1c(C(=O)O)noc1C`, the inhibition came out at 52%. Compound `C/C(=N\NC(=O)c1ccc(F)cc1F)c1c(C(=O)O)noc1C` registered an inhibition of 58%. The same measure for `C/C(=N\NC(=O)c1cc(C(F)(F)F)cc(C(F)(F)F)c1)c1c(C(=O)O)noc1C`: 90%; for `COc1ccc(C(=O)N/N=C(\C)c2c(C(=O)O)noc2C)cc1`: 68%; for `C/C(=N\NC(=O)c1cccc2ccccc12)c1c(C(=O)O)noc1C`: 68%.
